Test: Solubility of the ketone compound
Assay type: physicochemical

- solubility in glycerol (glycerol): very low solubility
- solubility in water (water): very low solubility
SMILES: CCOc1cc(CCC(C)=O)ccc1O [ketone compound, 4-(3-Ethoxy-4-hydroxyphenyl)butan-2-one]

— patent US11458077B2, “Two-phase cosmetic composition comprising a 4-(3-alkoxy-4-hydroxyphenyl)alkyl ketone” (L'OREAL, priority 2017, dated 2022)
